Laboratory results: patent US10772934B2 (Longevity Biotech, Inc., priority 2010, dated 2020)
No end group written: not given here.

Columns and labels:
VIPR1 = molecular target: T1, VIPR1 (Homo sapiens, UniProt P32241); test: cAMP Hunter cell line functional assay, agonist mode (DiscoveRx HitHunter cAMP XS+); format: cell-based; conditions: for Mean RLU: Cell Line VIPR1, Mode Agonist, Readout cAMP
T1 sequence (P32241 31-457): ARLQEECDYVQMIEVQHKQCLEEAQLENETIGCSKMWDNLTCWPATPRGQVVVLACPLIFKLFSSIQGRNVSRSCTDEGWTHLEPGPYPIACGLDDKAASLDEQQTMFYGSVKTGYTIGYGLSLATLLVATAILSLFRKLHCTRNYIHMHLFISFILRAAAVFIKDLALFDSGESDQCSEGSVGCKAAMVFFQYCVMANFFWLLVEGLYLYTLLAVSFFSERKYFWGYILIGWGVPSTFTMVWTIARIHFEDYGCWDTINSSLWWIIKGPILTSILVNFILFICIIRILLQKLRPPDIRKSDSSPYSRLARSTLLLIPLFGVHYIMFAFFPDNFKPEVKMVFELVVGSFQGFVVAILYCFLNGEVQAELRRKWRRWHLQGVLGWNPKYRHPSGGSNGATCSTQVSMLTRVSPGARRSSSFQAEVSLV
Description: (§1) Once it was established that the cells were healthy and growing normally, cells were passaged from flasks using cell dissociation reagent buffer and seeded into white walled clear bottom 384-well microplates for compound profiling. For profiling, cells were seeded at a density of 10,000 cells per well in a total volume of 20 μL and were allowed to adhere and recover overnight prior to compound addition. cAMP modulation was determined using the DiscoveRx HitHunter cAMP XS+ assay.
(§2) For profiling compound in agonist mode, the cells were incubated in the presence of compound at 37° C. for 30 minutes. […] After appropriate compound incubation, assay signal was generated through incubation with DiscoverX lysis cocktail according to the manufacturers standard protocol. Dose curves were plotted using GraphPad Prism or Activity Base. Percentage activity is calculated using the following formula: % Activity=100%×(mean RLU of test sample−mean RLU of vehicle control)/(mean RLU of MAX control−mean RLU of vehicle control).

VIPR2 = molecular target: T2, VIPR2 (Homo sapiens, UniProt P41587); test: as above; format: cell-based; conditions: for Mean RLU: Cell Line VIPR2, Mode Agonist, Readout cAMP
T2 construct: host or cells: cAMP Hunter cell lines (CHO-K1 is named only in the prophetic assay)
T2 sequence (P41587 24-438): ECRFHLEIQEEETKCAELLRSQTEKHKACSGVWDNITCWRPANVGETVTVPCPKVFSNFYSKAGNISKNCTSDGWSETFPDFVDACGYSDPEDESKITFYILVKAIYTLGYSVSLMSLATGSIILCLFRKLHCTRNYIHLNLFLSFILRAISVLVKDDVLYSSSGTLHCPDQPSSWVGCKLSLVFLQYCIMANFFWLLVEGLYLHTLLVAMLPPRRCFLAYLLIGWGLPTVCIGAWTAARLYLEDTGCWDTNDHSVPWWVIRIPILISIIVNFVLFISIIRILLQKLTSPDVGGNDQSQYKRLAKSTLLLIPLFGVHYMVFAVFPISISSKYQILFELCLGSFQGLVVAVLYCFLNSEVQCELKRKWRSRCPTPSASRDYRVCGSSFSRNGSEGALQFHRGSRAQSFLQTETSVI
Description: as §1, §2

[1] = in the blood stream; cited from earlier work
calcitonin (CT) receptor = conditions: cited from earlier work
[2] = molecular target: calcitonin-gene related peptide (CGRP) receptors (Homo sapiens, UniProt O60894+Q16602); conditions: cited from earlier work
calcitonin-gene related peptide (CGRP) receptors, sequence (Q16602 23-461): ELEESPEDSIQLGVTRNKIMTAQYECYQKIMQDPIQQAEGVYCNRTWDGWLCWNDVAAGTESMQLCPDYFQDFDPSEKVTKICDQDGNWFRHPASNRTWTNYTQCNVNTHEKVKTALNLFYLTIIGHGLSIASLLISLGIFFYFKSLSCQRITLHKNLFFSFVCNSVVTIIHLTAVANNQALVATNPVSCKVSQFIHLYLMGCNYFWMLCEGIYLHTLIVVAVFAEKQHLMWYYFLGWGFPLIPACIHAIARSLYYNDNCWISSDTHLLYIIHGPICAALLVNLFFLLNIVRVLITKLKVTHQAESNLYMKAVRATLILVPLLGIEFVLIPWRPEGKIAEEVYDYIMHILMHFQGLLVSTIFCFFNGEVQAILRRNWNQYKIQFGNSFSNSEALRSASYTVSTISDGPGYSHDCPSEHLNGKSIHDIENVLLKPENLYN
calcitonin-gene related peptide (CGRP) receptors, sequence (O60894 27-148 partner): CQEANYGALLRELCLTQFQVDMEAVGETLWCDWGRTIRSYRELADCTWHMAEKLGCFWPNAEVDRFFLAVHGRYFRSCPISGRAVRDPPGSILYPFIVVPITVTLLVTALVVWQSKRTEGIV

adrenomedullin receptors = adrenomedullin receptors (Homo sapiens, UniProt Q16602); conditions: cited from earlier work
adrenomedullin receptors, sequence (Q16602 23-461): as the sequence (Q16602 23-461) above

G-actin monomers = conditions: 1:1 ratio; read-out: Kd, sequestration of G-actin monomers; cited from earlier work
Glucagon receptor = molecular target: T3, Glucagon receptor (Rattus norvegicus, UniProt P30082); conditions: cited from earlier work
T3 construct: from tissue; host or cells: rat liver membranes
T3 sequence (P30082 27-485): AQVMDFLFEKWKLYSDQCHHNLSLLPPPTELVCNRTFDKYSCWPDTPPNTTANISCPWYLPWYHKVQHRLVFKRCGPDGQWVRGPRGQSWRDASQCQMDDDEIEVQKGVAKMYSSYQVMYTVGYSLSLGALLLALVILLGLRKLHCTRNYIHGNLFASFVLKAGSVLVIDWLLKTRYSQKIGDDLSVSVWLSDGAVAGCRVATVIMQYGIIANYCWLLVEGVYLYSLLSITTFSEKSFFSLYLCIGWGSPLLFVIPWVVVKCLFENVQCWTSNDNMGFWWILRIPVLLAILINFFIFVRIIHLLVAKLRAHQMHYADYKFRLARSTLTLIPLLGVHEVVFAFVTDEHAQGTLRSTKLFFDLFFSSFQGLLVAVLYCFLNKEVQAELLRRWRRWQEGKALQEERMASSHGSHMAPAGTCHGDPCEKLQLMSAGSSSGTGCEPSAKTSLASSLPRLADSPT

[3] = tested on: vasoactive intestinal peptide (VIP); conditions: read-out: IC50, selective VIP antagonist; cited from earlier work
glucagon receptors = glucagon receptors (Homo sapiens, UniProt P47871); conditions: cited from earlier work
glucagon receptors, sequence (P47871 26-477): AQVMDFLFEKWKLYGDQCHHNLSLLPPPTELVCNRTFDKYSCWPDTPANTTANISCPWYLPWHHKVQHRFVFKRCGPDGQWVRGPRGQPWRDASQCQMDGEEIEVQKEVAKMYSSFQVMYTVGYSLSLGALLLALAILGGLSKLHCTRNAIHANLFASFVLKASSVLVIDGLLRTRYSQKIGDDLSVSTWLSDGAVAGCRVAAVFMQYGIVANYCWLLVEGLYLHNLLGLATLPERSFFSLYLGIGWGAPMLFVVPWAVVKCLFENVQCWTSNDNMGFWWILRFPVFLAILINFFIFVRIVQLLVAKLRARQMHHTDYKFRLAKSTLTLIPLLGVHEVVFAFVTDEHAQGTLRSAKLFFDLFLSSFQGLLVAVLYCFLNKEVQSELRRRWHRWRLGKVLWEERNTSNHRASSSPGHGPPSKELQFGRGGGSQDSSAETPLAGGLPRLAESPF

secretin receptors = secretin receptors (Homo sapiens, UniProt P47872); conditions: cited from earlier work
secretin receptors, sequence (P47872 23-440): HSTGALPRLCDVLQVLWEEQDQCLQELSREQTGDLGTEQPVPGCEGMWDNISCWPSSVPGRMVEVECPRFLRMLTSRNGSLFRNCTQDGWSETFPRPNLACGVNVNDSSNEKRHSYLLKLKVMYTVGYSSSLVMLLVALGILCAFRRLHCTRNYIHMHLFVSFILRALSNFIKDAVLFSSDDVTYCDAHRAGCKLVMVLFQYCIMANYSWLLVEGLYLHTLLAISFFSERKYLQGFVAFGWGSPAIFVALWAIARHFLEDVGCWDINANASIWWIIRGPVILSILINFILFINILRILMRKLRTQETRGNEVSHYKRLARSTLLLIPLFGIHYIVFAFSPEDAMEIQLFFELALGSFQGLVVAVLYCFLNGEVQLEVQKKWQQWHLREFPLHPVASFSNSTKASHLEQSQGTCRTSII

GRF receptors = molecular target: T4, GRF receptors (Homo sapiens, UniProt Q02643); conditions: cited from earlier work
T4 sequence (Q02643 23-423): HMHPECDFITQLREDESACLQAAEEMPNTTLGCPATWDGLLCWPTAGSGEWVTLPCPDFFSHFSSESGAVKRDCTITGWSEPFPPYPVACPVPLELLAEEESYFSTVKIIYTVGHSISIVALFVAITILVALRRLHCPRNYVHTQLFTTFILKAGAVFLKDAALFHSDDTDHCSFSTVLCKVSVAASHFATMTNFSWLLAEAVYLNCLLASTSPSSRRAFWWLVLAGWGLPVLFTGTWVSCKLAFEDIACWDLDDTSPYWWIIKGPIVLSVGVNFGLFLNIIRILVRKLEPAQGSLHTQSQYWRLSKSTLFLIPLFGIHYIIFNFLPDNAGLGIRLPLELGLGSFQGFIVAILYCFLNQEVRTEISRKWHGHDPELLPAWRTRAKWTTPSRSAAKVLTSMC

CC[C@H](C)[C@H](NC(=O)[C@H]1CCC[C@@H]1NC(=O)[C@H](CC(N)=O)NC(=O)[C@H](CC(C)C)NC(=O)[C@H](Cc1ccc(O)cc1)NC(=O)[C@H]1CNC[C@@H]1NC(=O)[C@H](CCCCN)NC(=O)[C@@H](NC(=O)[C@H]1CCC[C@@H]1NC(=O)[C@H](CC(C)C)NC(=O)[C@H](CCC(N)=O)NC(=O)[C@H](CCCCN)NC(=O)[C@H]1CNC[C@@H]1NC(=O)[C@H](CC(C)C)NC(=O)[C@H](CCCNC(=N)N)NC(=O)[C@H]1CCC[C@@H]1NC(=O)[C@H](Cc1ccc(O)cc1)NC(=O)[C@H](CC(N)=O)NC(=O)[C@H](CC(=O)O)NC(=O)[C@@H](NC(=O)[C@H](Cc1ccccc1)NC(=O)[C@@H](NC(=O)[C@H](C)NC(=O)[C@H](CC(=O)O)NC(=O)[C@H](CO)NC(=O)[C@@H](N)Cc1c[nH]cn1)C(C)C)[C@@H](C)O)C(C)C)C(=O)N[C@@H](CC(C)C)C(=O)NC(CC(N)=O)CC(N)=O [Compound 8, HSDAVFTDNYXRLZKQLXVKZYLNXILN]
Mean RLU (VIPR1; [Compound] 1.00E−08 M): 13700.0 RLU | Mean RLU (VIPR1; [Compound] 1.00E−09 M): 10600.0 RLU | Mean RLU (VIPR1; [Compound] 1.00E−10 M): 9060.0 RLU | Mean RLU (VIPR1; [Compound] 1.00E−11 M): 10500.0 RLU | Mean RLU (VIPR1; [Compound] 1.00E−12 M): 10340.0 RLU | Mean RLU (VIPR1; [Compound] 5.00E−08 M): 95460.0 RLU | Mean RLU (VIPR1; [Compound] 5.00E−09 M): 13200.0 RLU | Mean RLU (VIPR1; [Compound] 5.00E−10 M): 9820.0 RLU | activation of VIPR1 (VIPR1; agonist mode, FIG. 3): fully activate | Mean RLU (VIPR2; [Compound] 1.00E−07 M): 8920.0 RLU | Mean RLU (VIPR2; [Compound] 1.00E−08 M): 9560.0 RLU | Mean RLU (VIPR2; [Compound] 1.00E−09 M): 8560.0 RLU | Mean RLU (VIPR2; [Compound] 1.00E−10 M): 7560.0 RLU | Mean RLU (VIPR2; [Compound] 1.00E−11 M): 9280.0 RLU | Mean RLU (VIPR2; [Compound] 1.00E−12 M): 8300.0 RLU | Mean RLU (VIPR2; [Compound] 5.00E−07 M): 10200.0 RLU | Mean RLU (VIPR2; [Compound] 5.00E−08 M): 9200.0 RLU | Mean RLU (VIPR2; [Compound] 5.00E−09 M): 8560.0 RLU | Mean RLU (VIPR2; [Compound] 5.00E−10 M): 9820.0 RLU | interaction with VIPR2 (VIPR2; agonist mode): does not interact substantially | activation of VIPR2 (VIPR2; agonist mode, FIG. 3): not activate

CC[C@H](C)[C@H](NC(=O)[C@H](CO)NC(=O)[C@H](CC(N)=O)NC(=O)[C@H](CC(C)C)NC(=O)[C@H](Cc1ccc(O)cc1)NC(=O)[C@H](CCCCN)NC(=O)[C@H](CCCCN)NC(=O)[C@@H](NC(=O)[C@H](C)NC(=O)[C@H](CCSC)NC(=O)[C@H](CCC(N)=O)NC(=O)[C@H](CCCCN)NC(=O)[C@H](CCCN=C(N)N)NC(=O)[C@H](CC(C)C)NC(=O)[C@H](CCCN=C(N)N)NC(=O)[C@@H](NC(=O)[C@H](Cc1ccc(O)cc1)NC(=O)[C@H](CC(N)=O)NC(=O)[C@H](CC(=O)O)NC(=O)[C@@H](NC(=O)[C@H](Cc1ccccc1)NC(=O)[C@@H](NC(=O)[C@H](C)NC(=O)[C@H](CC(=O)O)NC(=O)[C@H](CO)NC(=O)[C@@H](N)Cc1c[nH]cn1)C(C)C)[C@@H](C)O)[C@@H](C)O)C(C)C)C(=O)N[C@@H](CC(C)C)C(=O)N[C@@H](CC(N)=O)C(N)=O [VIP]
half-life [1]: about two

Calcitoninreceptor-stimulating peptide-1 (SCNTATCMTHRLVGLLSRSGSMVRSNLLPTKMGFKVFG-NH2; ends and bridges not checked; UniProt Q862B1 81-118, looked up)
ED50, stimulation of cAMP formation (calcitonin (CT) receptor; calcitonin (CT) receptor): 0.2 nM | Potency in stimulating cAMP formation relative to CT (calcitonin (CT) receptor; greater than CT): 350 fold | Activity at CGRP receptors [2]: Displays no activity at calcitonin-gene related peptide (CGRP) and adrenomedullin | Activity at adrenomedullin receptors (adrenomedullin receptors): Displays no activity at calcitonin-gene related peptide (CGRP) and adrenomedullin

Thymosin β4
Kd (G-actin monomers): 700 to 1000 nM

des-His1-{Glu9}-Glucagon (1-29) amide
Agonist activity at the glucagon receptor (Glucagon receptor): adenylyl cyclase activation in rat liver membranes); displays no agonist activity. | pA2 for inhibition of glucagon-induced adenylyl cyclase activation (Glucagon receptor; rat liver membranes): (Glucagon receptor antagonist (pA2 = 7.2 for inhibition of glucagon-induced

{D-p-Cl-Phe6,Leu17}-VIP
IC50 [3]: 126 nM | Activity on glucagon receptors (glucagon receptors): Displays no activity on glucagon, secretin or GRF receptors.) | Activity on secretin receptors (secretin receptors): Displays no activity on glucagon, secretin or GRF receptors.) | Activity on GRF receptors (GRF receptors): Displays no activity on glucagon, secretin or GRF receptors.)
